Reference: patent publication US10899738B2 (THE REGENTS OF THE UNIVERSITY OF MICHIGAN, priority 2016, dated 2021)

These molecules were tested against menin protein (Homo sapiens (Human), UniProt O00255) (assay: biochemical). Conditions: FP competitive binding; menin protein 4 nM, FAM-MM2 probe 2 nM.
Format: binding
Protocol: A fluorescence polarization (FP) competitive binding assay was used to determine the binding affinities of representative menin inhibitors. A FAM labeled fluorescent probe was designed and synthesized based on a MLL1 peptide (FAM-MM2). Equilibrium dissociation constant (Kd) value of FAM-MM2 to menin protein was determined from protein saturation experiments by monitoring the total fluorescence polarization of mixtures composed with the fluorescent probe at a fixed concentration and the protein with increasing concentrations up to full saturation. Serial dilutions of the protein were mixed with FAM-MM2 to a final volume of 200 μl in the assay buffer (PBS with 0.02% Bovine γ-Globulin and 4% DMSO. 0.01% Triton X-100 was added right before assays). Final FAM-MM2 concentration was 2 nM. Plates were incubated at room temperature for 30 minutes with gentle shaking to assure equilibrium.
The IC50, see Table 3, and Ki values of representative Compounds of the Disclosure were determined in a competitive binding experiment. Mixtures of 5 μl of the tested compounds in DMSO and 195 μl of preincubated protein/probe complex solution in the assay buffer were added into assay plates which were incubated at room temperature for 30 minutes with gentle shaking. Final concentration of the menin protein was 4 nM, and final probe concentration is 2 nM. […] FP values were measured as described above. IC50 values were determined by nonlinear regression fitting of the competition curves.

Chain of menin protein (O00255 whole entry): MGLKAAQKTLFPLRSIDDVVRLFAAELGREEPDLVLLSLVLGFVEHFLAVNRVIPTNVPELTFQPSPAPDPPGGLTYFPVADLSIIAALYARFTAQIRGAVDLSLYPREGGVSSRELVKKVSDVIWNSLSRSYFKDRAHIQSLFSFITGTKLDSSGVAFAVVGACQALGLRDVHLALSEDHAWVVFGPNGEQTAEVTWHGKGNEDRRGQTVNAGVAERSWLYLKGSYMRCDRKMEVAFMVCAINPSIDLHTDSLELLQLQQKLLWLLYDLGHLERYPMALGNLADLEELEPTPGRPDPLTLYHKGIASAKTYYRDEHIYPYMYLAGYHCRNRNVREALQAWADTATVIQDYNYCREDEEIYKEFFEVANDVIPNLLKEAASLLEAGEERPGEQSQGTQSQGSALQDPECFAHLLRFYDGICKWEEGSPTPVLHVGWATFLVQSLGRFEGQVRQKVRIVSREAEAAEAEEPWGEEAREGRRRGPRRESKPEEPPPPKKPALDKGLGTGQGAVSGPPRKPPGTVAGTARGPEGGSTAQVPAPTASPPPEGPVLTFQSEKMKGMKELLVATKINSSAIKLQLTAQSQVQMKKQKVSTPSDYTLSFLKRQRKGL

Menin Binding Affinity IC50 (μM) | SMILES
No inhibition | C[C@H](NC(=O)O[C@@H]1CCC[C@H]1[C@@](C#N)(c1ccccc1)C1CCN(CC2CN(c3ccc(S(=O)(=O)c4ccncc4)cc3)C2)CC1)c1ccccc1 [compound 218, (1R,2S)-2-((R)-cyano(phenyl)(1-((1-(4-(pyridin-4-ylsulfonyl)phenyl)azetidin-3-yl)methyl)piperidin-4-yl)methyl)cyclopentyl ((S)-1-phenylethyl)carbamate]
No inhibition | CC(=O)O[C@H]1CCC[C@@H]1C(C#N)(c1ccccc1)C1CCN(CC#Cc2ccc(C#N)cc2)CC1 (mixture of isomers) [compound 386, rac-(1S,2R)-2-(cyano(1-(3-(4-cyanophenyl)prop-2-yn-1-yl)piperidin-4-yl)(phenyl)methyl)cyclopentyl acetate]

Same assay, conditions: FP competitive binding; menin protein 4 nM, FAM-MM2 probe 2 nM; read-out: Menin Binding Affinity IC50

IC50 [nM] | SMILES
331 | N#CC(c1ccccc1)(C1CCN(CC2CN(c3ccc(S(=O)(=O)c4ccccc4)cc3)C2)CC1)[C@@H]1CCC[C@H]1OC(N)=O (mixture of isomers) [compound 224, rac-(1R,2S)-2-(cyano(phenyl)(1-((1-(4-(phenylsulfonyl)phenyl)azetidin-3-yl)methyl)piperidin-4-yl)methyl)cyclopentyl carbamate]
23700 | CS(=O)(=O)c1ccc(N2CC(CN3CCC(C(C#N)(c4ccccc4)[C@H]4CCC[C@H]4S(C)(=O)=O)CC3)C2)cc1 (mixture of isomers) [compound 182, rac-2-((1R,2R)-2-(methylsulfonyl)cyclopentyl)-2-(1-((1-(4-(methylsulfonyl)phenyl)azetidin-3-yl)methyl)piperidin-4-yl)-2-phenylacetonitrile]
853 | N#CC(c1ccccc1)(C1CCN(CC2CN(c3ccc(S(=O)(=O)c4ccncc4)cc3)C2)CC1)[C@@H]1CCC[C@H]1OC(=O)C1CC1 (mixture of isomers) [compound 198, rac-(1R,2S)-2-(cyano(phenyl)(1-((1-(4-(pyridin-4-ylsulfonyl)phenyl)azetidin-3-yl)methyl)piperidin-4-yl)methyl)cyclopentyl cyclopropanecarboxylate]
4600 | N#CC(c1ccccc1)(C1CCN(CC2CN(c3ccc(S(=O)(=O)c4ccncc4)cc3)C2)CC1)[C@@H]1CCC[C@H]1CO (mixture of isomers) [compound 257, rac-2-((1R,2R)-2-(hydroxymethyl)cyclopentyl)-2-phenyl-2-(1-((1-(4-(pyridin-4-ylsulfonyl)phenyl)azetidin-3-yl)methyl)piperidin-4-yl)acetonitrile]
261 | COC(=O)[C@H]1CCC[C@@H]1C(C#N)(c1ccccc1)C1CCN(CC2CN(c3ccc(S(=O)(=O)C4CC4)cc3)C2)CC1 (mixture of isomers) [compound 332, methyl rac-(1S,2S)-2-(cyano(1-((1-(4-(cyclopropylsulfonyl)phenyl)azetidin-3-yl)methyl)piperidin-4-yl)(phenyl)methyl)cyclopentane-1-carboxylate]
6 | CNC(=O)O[C@H]1CCC[C@@H]1C(Cn1ccnc1C)(c1cccc(F)c1)C1CCN(CC2CN(c3ccc(Cl)cc3)C2)CC1 (mixture of isomers) [compound 413, rac-(1S,2R)-2-(1-(1-((1-(4-chlorophenyl)azetidin-3-yl)methyl)piperidin-4-yl)-1-(3-fluorophenyl)-2-(2-methyl-1H-imidazol-1-yl)ethyl)cyclopentyl methylcarbamate]
160 | CNC(=O)O[C@@H]1CCC[C@H]1C(C#N)(c1ccccc1)C1CCN(CC2CN(c3ccc(S(=O)(=O)c4nn(C)cc4Br)cc3)C2)CC1 (mixture of isomers) [compound 229, rac-(1R,2S)-2-((1-((1-(4-((4-bromo-1-methyl-1H-pyrazol-3-yl)sulfonyl)phenyl)azetidin-3-yl)methyl)piperidin-4-yl)(cyano)(phenyl)methyl) cyclopentyl methylcarbamate]
12 | CNC(=O)O[C@H]1CCC[C@@H]1C(Cn1ccnc1)(c1ccccc1)C1CCN(CC2CN(c3ccc(S(=O)(=O)c4ccccc4)cc3)C2)CC1 (mixture of isomers) [compound 236, rac-(1S,2R)-2-(2-(1H-imidazol-1-yl)-1-phenyl-1-(1-((1-(4-(phenylsulfonyl)phenyl)azetidin-3-yl)methyl)piperidin-4-yl)ethyl)cyclopentyl methylcarbamate]
819 | COC(=O)N[C@@H]1CCC[C@H]1C(C#N)(c1ccccc1)C1CCN(CC2CN(c3ccc(S(=O)(=O)c4ccccc4)cc3)C2)CC1 (mixture of isomers) [compound 348, methyl (rac-(1R,2S)-2-(cyano(phenyl)(1-((1-(4-(phenylsulfonyl)phenyl)azetidin-3-yl)methyl)piperidin-4-yl)methyl)cyclopentyl) carbamate]
170 | CCNC(=O)O[C@H]1CCC[C@@H]1C(C#N)(c1ccccc1)C1CCN(CC2CN(c3ccc(S(=O)(=O)c4ccncc4)cc3)C2)CC1 (mixture of isomers) [compound 213, rac-(1S,2R)-2-(cyano(phenyl)(1-((1-(4-(pyridin-4-ylsulfonyl)phenyl)azetidin-3-yl)methyl)piperidin-4-yl)methyl)cyclopentyl ethylcarbamate]
563 | N#CC(c1ccccc1)(C1CCN(CC2CN(c3ccc(S(=O)(=O)c4ccncc4)cc3)C2)CC1)[C@H]1CCC[C@@H]1CO (mixture of isomers) [compound 258, rac-2-((1S,2S)-2-(hydroxymethyl)cyclopentyl)-2-phenyl-2-(1-((1-(4-(pyridin-4-ylsulfonyl)phenyl)azetidin-3-yl)methyl)piperidin-4-yl)acetonitrile]
111 | N#CC(c1ccccc1)(C1CCN(CC2CN(c3ccc(S(=O)(=O)c4ccncc4)cc3)C2)CC1)[C@H]1CCC[C@@H]1OC(=O)C1CCC1 (mixture of isomers) [compound 209, rac-(1S,2R)-2-(cyano(phenyl)(1-((1-(4-(pyridin-ylsulfonyl)phenyl)azetidin-3-yl)methyl)piperidin-4-yl)methyl)cyclopentyl cyclobutanecarboxylate]
506 | CNC(=O)O[C@@H]1CCC[C@H]1C(C#N)(c1ccccc1)C1CCN(CC2CN(c3ccc(C(F)(F)F)cc3)C2)CC1 (mixture of isomers) [compound 368, rac-(1R,2S)-2-(cyano(phenyl)(1-((1-(4-(trifluoromethyl)phenyl)azetidin-3-yl)methyl)piperidin-4-yl)methyl)cyclopentyl methylcarbamate]

Second part, the molecule before the results:

SMILES | IC50 [nM]
O=C(CN1CCC(C2(C3CCCC3)NCCc3ccccc32)CC1)N1CCc2ccccc2C1 (stereo not shown) [compound 84, 2-(4-(1-cyclopentyl-1,2,3,4-tetrahydroisoquinolin-1-yl)piperidin-1-yl)-1-(3,4-dihydroisoquinolin-2(1H)-yl)ethan-1-one] | 8200
CS(=O)(=O)CCC(C#N)(c1ccccc1)C1CCN(CCCOc2ccc(C#N)cc2)CC1 (stereo not shown) [compound 303, 4-(3-(4-(1-cyano-3-(methylsulfonyl)-1-phenylpropyl)piperidin-1-yl)propoxy)benzonitrile] | 75300
O=S(=O)(c1ccc(O[C@H]2C[C@@H](N3CCC(C4(C5CCCC5)NCCc5ccccc54)CC3)C2)cc1)C1CC1 (stereo partly shown) [compound 89, 1-cyclopentyl-1-(1-((1s,3s)-3-(4-(cyclopropylsulfonyl)phenoxy)cyclobutyl)piperidin-4-yl)-1,2,3,4-tetrahydroisoquinoline] | 13100
CS(=O)(=O)c1ccc(N2CC(CN3CCC(C4(C5CCCC5)NCCc5ccccc54)CC3)C2)cc1 (stereo not shown) [compound 132, 1-cyclopentyl-1-(1-((1-(4-(methylsulfonyl)phenyl)azetidin-3-yl)methyl)piperidin-4-yl)-1,2,3,4-tetrahydroisoquinoline] | 77
N#Cc1ccc(OCCCCN2CC(C3(C4CCCC4)NCCc4ccccc43)C2)cc1 (stereo not shown) [compound 62, 4-(4-(3-(1-cyclopentyl-1,2,3,4-tetrahydroisoquinolin-1-yl)azetidin-1-yl)butoxy)benzonitrile] | 36200
COC(=O)N1Cc2ccccc2C(C2CCN(CCCOc3ccc(C#N)cc3)CC2)([C@H]2CCC[C@@H]2OC)C1 (mixture of isomers) [compound 324, methyl rac-4-(1-(3-(4-cyanophenoxy)propyl)piperidin-4-yl)-4-((1R,2S)-2-methoxycyclopentyl)-3,4-dihydroisoquinoline-2(1H)-carboxylate] | 9600
N#Cc1ccc(OCCCN2CCC(C(CN)(c3ccccc3)C3CCCC3)CC2)cc1 (stereo not shown) [compound 39, 4-(3-(4-(2-amino-1-cyclopentyl-1-phenylethyl)piperidin-1-yl)propoxy)benzonitrile] | 124
CC(COc1ccc(C#N)cc1)CN1CCC(C(C#N)(c2ccccc2)C2CCCC2)CC1 (stereo not shown) [compound 127, 4-(3-(4-(cyano(cyclopentyl)(phenyl)methyl)piperidin-1-yl)-2-methylpropoxy)benzonitrile] | 294000
CC(=O)N[C@@H]1CCC[C@H]1C1(C2CCN(CC3CN(c4ccc(S(=O)(=O)c5cnn(C)c5)cc4)C3)CC2)CNCc2ccccc21 (mixture of isomers) [compound 287, rac-N-((1R,2S)-2-(4-(1-((1-(4-((1-methyl-1H-pyrazol-4-yl)sulfonyl)phenyl)azetidin-3-yl)methyl)piperidin-4-yl)-1,2,3,4-tetrahydroisoquinolin-4-yl)cyclopentyl)acetamide] | 247
O=S(=O)(c1ccc(N2CC(F)(CN3CCC(C4(C5CCCC5)NCCc5ccccc54)CC3)C2)cc1)C1CC1 (stereo not shown) [compound 140, 1-cyclopentyl-1-(1-((1-(4-(cyclopropylsulfonyl)phenyl)-3-fluoroazetidin-3-yl)methyl)piperidin-4-yl)-1,2,3,4-tetrahydroisoquinoline] | 104
